According to PMC8500670, “A selective WDR5 degrader inhibits acute myeloid leukemia in patient-derived mouse models” (Science translational medicine, 2021):

Assays:
Experiment in all cases: biochemical
Set-up in all cases: protein methyltransferase inhibition panel, single concentration, duplicate
[1] = molecular target: PRMT8 (Homo sapiens, UniProt Q9NR22)
Description: (§1) We next assessed selectivity of MS67 against 22 protein methyltransferases (table S2) and a broad panel of common drug targets including 45 kinases (table S3) and 44 G protein–coupled receptors (GPCR), ion channels, and transporters (table S4). […] We subsequently determined that MS67 had moderate binding affinity (Ki = 1.0 ± 0.8 μM) to Sigma 2 receptor (fig. S10).

[2] = molecular target: T1, GLP (Homo sapiens, UniProt Q9H9B1)
T1 construct: gene EHMT1
T1 sequence (Q9H9B1 1-1298): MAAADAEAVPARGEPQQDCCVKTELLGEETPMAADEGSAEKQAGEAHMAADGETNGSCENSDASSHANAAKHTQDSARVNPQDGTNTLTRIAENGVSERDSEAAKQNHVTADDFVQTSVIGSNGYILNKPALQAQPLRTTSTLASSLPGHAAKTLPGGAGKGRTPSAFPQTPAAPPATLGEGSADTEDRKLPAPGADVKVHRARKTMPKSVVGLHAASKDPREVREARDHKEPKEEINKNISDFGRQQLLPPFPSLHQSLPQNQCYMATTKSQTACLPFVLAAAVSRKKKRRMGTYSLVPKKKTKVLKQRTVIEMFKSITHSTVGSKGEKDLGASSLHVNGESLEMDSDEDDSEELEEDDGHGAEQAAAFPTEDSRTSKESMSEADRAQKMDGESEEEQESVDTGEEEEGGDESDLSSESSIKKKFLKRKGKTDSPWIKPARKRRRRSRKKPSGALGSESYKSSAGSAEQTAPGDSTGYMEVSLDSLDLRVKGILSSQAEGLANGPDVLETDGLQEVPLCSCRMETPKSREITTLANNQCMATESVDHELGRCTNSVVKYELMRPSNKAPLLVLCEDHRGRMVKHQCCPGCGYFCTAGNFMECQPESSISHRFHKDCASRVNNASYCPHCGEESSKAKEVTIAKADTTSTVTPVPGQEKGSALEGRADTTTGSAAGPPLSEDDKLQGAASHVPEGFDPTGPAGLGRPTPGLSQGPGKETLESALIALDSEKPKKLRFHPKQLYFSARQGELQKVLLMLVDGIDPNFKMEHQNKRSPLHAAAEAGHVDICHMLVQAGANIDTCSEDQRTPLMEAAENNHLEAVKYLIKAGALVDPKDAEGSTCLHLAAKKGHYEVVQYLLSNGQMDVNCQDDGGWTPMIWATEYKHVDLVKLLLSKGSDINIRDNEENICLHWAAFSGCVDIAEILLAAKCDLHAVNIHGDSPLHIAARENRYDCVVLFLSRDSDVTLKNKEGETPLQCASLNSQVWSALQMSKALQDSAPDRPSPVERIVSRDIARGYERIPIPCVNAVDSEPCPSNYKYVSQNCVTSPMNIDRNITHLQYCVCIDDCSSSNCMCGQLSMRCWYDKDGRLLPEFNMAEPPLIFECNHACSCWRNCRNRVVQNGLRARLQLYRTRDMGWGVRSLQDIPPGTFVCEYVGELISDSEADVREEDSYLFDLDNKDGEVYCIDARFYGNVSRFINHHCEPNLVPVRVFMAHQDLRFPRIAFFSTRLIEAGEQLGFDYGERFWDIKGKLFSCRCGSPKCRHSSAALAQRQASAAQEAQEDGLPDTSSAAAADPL
Description: as §1

[3] = molecular target: T2, NSD3 (Homo sapiens, UniProt Q9BZ95)
T2 sequence (Q9BZ95 1-1437): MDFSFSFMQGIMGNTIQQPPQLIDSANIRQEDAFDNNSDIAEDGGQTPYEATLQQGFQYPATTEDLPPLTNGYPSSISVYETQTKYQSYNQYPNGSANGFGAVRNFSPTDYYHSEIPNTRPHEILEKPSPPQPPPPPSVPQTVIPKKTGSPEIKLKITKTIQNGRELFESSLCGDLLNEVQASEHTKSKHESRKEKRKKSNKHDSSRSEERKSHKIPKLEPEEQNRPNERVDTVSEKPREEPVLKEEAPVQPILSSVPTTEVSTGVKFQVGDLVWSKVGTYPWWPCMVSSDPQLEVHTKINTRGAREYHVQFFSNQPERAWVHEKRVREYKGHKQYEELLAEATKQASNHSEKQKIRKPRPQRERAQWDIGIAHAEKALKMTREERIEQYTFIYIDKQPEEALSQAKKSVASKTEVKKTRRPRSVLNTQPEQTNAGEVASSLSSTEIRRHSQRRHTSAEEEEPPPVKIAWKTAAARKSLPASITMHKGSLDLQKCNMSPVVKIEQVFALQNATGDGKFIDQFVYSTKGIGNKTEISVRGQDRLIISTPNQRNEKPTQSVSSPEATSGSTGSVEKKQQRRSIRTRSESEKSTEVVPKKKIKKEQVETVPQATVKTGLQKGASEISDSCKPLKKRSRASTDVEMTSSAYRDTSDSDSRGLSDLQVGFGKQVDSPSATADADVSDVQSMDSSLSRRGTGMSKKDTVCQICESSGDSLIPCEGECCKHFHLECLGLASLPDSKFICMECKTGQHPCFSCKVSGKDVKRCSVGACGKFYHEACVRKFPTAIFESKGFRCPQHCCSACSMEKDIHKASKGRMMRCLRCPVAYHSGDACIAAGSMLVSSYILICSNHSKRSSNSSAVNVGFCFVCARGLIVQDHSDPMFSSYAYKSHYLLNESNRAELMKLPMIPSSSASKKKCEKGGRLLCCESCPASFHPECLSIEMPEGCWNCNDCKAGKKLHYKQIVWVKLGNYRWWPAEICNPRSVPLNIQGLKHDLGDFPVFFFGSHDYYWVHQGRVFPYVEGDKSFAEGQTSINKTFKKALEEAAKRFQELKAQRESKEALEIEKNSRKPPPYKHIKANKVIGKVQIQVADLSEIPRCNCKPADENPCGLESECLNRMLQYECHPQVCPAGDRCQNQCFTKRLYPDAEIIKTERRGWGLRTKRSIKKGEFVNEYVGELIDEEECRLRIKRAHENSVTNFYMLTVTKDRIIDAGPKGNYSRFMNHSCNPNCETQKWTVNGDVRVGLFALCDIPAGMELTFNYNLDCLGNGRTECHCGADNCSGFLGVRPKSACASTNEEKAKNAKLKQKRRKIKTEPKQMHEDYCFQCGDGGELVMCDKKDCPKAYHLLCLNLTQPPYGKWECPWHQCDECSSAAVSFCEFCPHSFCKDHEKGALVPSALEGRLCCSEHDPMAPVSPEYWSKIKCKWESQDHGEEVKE
Description: as §1

Measured: inhibition at 10 µM

Chain of PRMT8 (Q9NR22 whole entry): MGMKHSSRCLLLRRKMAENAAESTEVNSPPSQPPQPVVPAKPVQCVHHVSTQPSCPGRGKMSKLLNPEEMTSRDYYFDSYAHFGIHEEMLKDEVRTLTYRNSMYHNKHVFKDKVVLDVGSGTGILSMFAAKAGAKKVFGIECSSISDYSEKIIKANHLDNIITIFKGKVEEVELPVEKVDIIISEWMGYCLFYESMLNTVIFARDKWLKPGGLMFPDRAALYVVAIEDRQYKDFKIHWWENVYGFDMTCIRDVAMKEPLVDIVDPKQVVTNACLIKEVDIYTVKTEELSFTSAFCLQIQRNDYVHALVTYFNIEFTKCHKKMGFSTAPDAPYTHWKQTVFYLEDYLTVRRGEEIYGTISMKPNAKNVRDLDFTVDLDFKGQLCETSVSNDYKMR

Cc1ncsc1-c1ccc([C@H](C)NC(=O)[C@@H]2C[C@@H](O)CN2C(=O)[C@@H](NC(=O)CNC(=O)c2ccc(F)c(-c3ccc(N4C[C@@H](C)N(C)[C@@H](C)C4)c(NC(=O)c4c[nH]c(=O)cc4C(F)(F)F)c3)c2)C(C)(C)C)cc1 [MS67]
< 10%: [1] | [2] | [3]
